Data: PubChem BioAssay AID330 (DTP/NCI, 2004)
Several values for one entry are separate records, joined by “and”; a condition that tells them apart may be missing. Equal entries are not always repeated. Inconclusive results and toxic doses are left out. Rule for the calls: active = survival T/C of 150% or more; inactive = T/C below 125% in these data.

System: P388 leukemia ip, CD2F1 mice, survival T/C
Experiment: NCI In Vivo Anticancer Drug Screen. Data for tumor model P388 Leukemia (intraperitoneal) in CD2F1 (CDF1) mice
Settings: endpoint: median survival time, higher = longer survival
In short: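 Mice carrying the transplanted tumor received test compound or vehicle. Survival was recorded in each group, and the value is the treated-group measurement divided by that of the vehicle-treated control group.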

[1] = dose: 60.0 mg/kg/injection, schedule: Q01DX005 (ip), vehicle: Klucel (hydroxypropylcellulose) (HPC)
[2] = dose: 120.0 mg/kg/injection, schedule: Q01DX005 (ip), vehicle: Klucel (hydroxypropylcellulose) (HPC)
[3] = dose: 240.0 mg/kg/injection, schedule: Q01DX005 (ip), vehicle: Klucel (hydroxypropylcellulose) (HPC)
[4] = dose: 50.0 mg/kg/injection, schedule: Q01DX005 (ip), vehicle: saline
[5] = dose: 100.0 mg/kg/injection, schedule: Q01DX005 (ip), vehicle: saline
[6] = dose: 200.0 mg/kg/injection, schedule: Q01DX005 (ip), vehicle: saline
[7] = dose: 50.0 mg/kg/injection, schedule: Q01DX009 (ip), vehicle: saline with Tween-80
[8] = dose: 100.0 mg/kg/injection, schedule: Q01DX009 (ip), vehicle: saline with Tween-80
[9] = dose: 200.0 mg/kg/injection, schedule: Q01DX009 (ip), vehicle: saline with Tween-80
[10] = dose: 50.0 mg/kg/injection, schedule: Q01DX009 (ip), vehicle: Klucel (hydroxypropylcellulose) (HPC)
[11] = dose: 100.0 mg/kg/injection, schedule: Q01DX009 (ip), vehicle: Klucel (hydroxypropylcellulose) (HPC)
[12] = dose: 200.0 mg/kg/injection, schedule: Q01DX009 (ip), vehicle: Klucel (hydroxypropylcellulose) (HPC)
[13] = dose: 400.0 mg/kg/injection, schedule: Q01DX009 (ip), vehicle: saline with Tween-80

Measured: T/C

COc1cc(CO)c(Br)c(OC)c1OC
inactive: dose: 100.0 mg/kg/injection, schedule: Q01DX001 (ip), vehicle: Klucel (hydroxypropylcellulose) (HPC) 100 % of control | dose: 200.0 mg/kg/injection, schedule: Q01DX001 (ip), vehicle: Klucel (hydroxypropylcellulose) (HPC) 100 % of control | dose: 400.0 mg/kg/injection, schedule: Q01DX001 (ip), vehicle: Klucel (hydroxypropylcellulose) (HPC) 106 % of control

CCCCCCCCC[N+](C)([O-])CCCCCC[N+](C)([O-])CCCCCCCCC (stereo not drawn)
inactive: dose: 12.5 mg/kg/injection, schedule: Q04DX003 (ip), vehicle: saline 103 % of control | dose: 25.0 mg/kg/injection, schedule: Q04DX003 (ip), vehicle: saline 96 % of control | dose: 50.0 mg/kg/injection, schedule: Q04DX003 (ip), vehicle: saline 93 % of control

OC1CSc2ccccc2-n2cccc21 (stereo not drawn)
inactive: [1] 99 % of control | [2] 106 % of control | [3] 105 % of control

CC(CO)CC(C)(C)C (stereo not drawn)
inactive: dose: 25.0 mg/kg/injection, schedule: Q01DX005 (ip), vehicle: saline 101 % of control | [4] 108 % of control | [5] 104 % of control | [6] 109 % of control

Clc1ccc(SSc2ccc(Cl)cc2)cc1
inactive: dose: 12.5 mg/kg/injection, schedule: Q01DX009 (ip), vehicle: gum acacia 106 % of control | dose: 25.0 mg/kg/injection, schedule: Q01DX009 (ip), vehicle: gum acacia 106 % of control | dose: 50.0 mg/kg/injection, schedule: Q01DX009 (ip), vehicle: gum acacia 114 % of control

O=C(c1ccccc1C(=O)N1CCCO1)N1CCCO1
inactive: [1] 93 % of control | [2] 100 % of control | [3] 100 % of control

Nc1nc(-c2ccccc2)cc(-c2cc(-c3ccccc3)nc(N)n2)n1
inactive: dose: 60.0 mg/kg/injection, schedule: Q01DX005 (ip), vehicle: saline 100 % of control | dose: 120.0 mg/kg/injection, schedule: Q01DX005 (ip), vehicle: saline 102 % of control | dose: 240.0 mg/kg/injection, schedule: Q01DX005 (ip), vehicle: saline 100 % of control

c1ccc(N2OCC3c4ccccc4-c4ccccc4C32)cc1 (stereo not drawn)
inactive: dose: 50.0 mg/kg/injection, schedule: Q04DX002 (ip), vehicle: suspension in saline 100 % of control | dose: 100.0 mg/kg/injection, schedule: Q04DX002 (ip), vehicle: suspension in saline 104 % of control | dose: 200.0 mg/kg/injection, schedule: Q04DX002 (ip), vehicle: suspension in saline 97 % of control

CCc1cccc(CC)c1NC(=S)NC(=O)c1ccccc1
inactive: [7] 95 % of control | [8] 96 % of control | [9] 96 % of control

NC1=NS(=O)(=O)Nc2nn(-c3ccccc3)nc21
inactive: dose: 100.0 mg/kg/injection, schedule: Q01DX001 (ip), vehicle: saline with Tween-80 107 % of control | dose: 200.0 mg/kg/injection, schedule: Q01DX001 (ip), vehicle: saline with Tween-80 101 % of control | dose: 400.0 mg/kg/injection, schedule: Q01DX001 (ip), vehicle: saline with Tween-80 99 % of control

CC(C)(C)C1(C(C)(C)C)CO1
inactive: dose: 6.25 mg/kg/injection, schedule: Q01DX009 (ip), vehicle: saline 98 % of control | dose: 12.5 mg/kg/injection, schedule: Q01DX009 (ip), vehicle: saline 96 % of control

CCOC(=O)/C=C/C(CO)OC(/C=C/C(=O)OCC)n1cnc2c(N)ncnc21 (stereo not drawn)
inactive: dose: 100.0 mg/kg/injection, schedule: Q04DX002 (ip), vehicle: Klucel (hydroxypropylcellulose) (HPC) 101 % of control | dose: 200.0 mg/kg/injection, schedule: Q04DX002 (ip), vehicle: Klucel (hydroxypropylcellulose) (HPC) 108 % of control | dose: 400.0 mg/kg/injection, schedule: Q04DX002 (ip), vehicle: Klucel (hydroxypropylcellulose) (HPC) 111 % of control

COC(=O)c1cc2c(s1)C(=O)c1ccccc1-2
inactive: [7] 91 % of control | [8] 103 % of control | [9] 100 % of control

CCOC(=O)c1cc2c(OC)c(OC)ccc2cc1N
inactive: dose: 12.5 mg/kg/injection, schedule: Q01DX009 (ip), vehicle: other 100 % of control | dose: 25.0 mg/kg/injection, schedule: Q01DX009 (ip), vehicle: other 103 % of control | dose: 50.0 mg/kg/injection, schedule: Q01DX009 (ip), vehicle: other 100 % of control | dose: 100.0 mg/kg/injection, schedule: Q01DX009 (ip), vehicle: other 115 % of control

Nc1cc(S(N)(=O)=O)ccc1SSc1ccc(S(N)(=O)=O)cc1N
inactive: [10] 94 % of control | [7] 105 % of control | [11] 112 % of control | [8] 109 % of control | [12] 112 % of control | [9] 110 % of control | dose: 400.0 mg/kg/injection, schedule: Q01DX009 (ip), vehicle: Klucel (hydroxypropylcellulose) (HPC) 121 % of control | [13] 117 % of control

O=C1OC(c2ccc(O)cc2)(c2ccc(O)cc2)c2ccccc21
inactive: dose: 100.0 mg/kg/injection, schedule: Q04DX002 (ip), vehicle: saline with Tween-80 99 % of control | dose: 200.0 mg/kg/injection, schedule: Q04DX002 (ip), vehicle: saline with Tween-80 103 % of control | dose: 400.0 mg/kg/injection, schedule: Q04DX002 (ip), vehicle: saline with Tween-80 93 % of control

CSc1cccc(NC(=O)OCCOc2ccc([N+](=O)[O-])cc2)c1
inactive: [10] 98 % of control | [11] 101 % of control | [12] 99 % of control

CCCCCCC(=O)C(=O)c1ccc(O)c(C)c1O
inactive: [10] 89 % of control | [11] 93 % of control | [12] 93 % of control

CC(=O)NCc1cc(C)c(CBr)cc1CBr
inactive: dose: 0.78 mg/kg/injection, schedule: Q01DX009 (ip), vehicle: distilled water + Tween-80 103 % of control | dose: 1.56 mg/kg/injection, schedule: Q01DX009 (ip), vehicle: distilled water + Tween-80 107 % of control | dose: 3.12 mg/kg/injection, schedule: Q01DX009 (ip), vehicle: distilled water + Tween-80 109 % of control | dose: 6.25 mg/kg/injection, schedule: Q01DX009 (ip), vehicle: distilled water + Tween-80 116 % of control | dose: 12.5 mg/kg/injection, schedule: Q01DX009 (ip), vehicle: distilled water + Tween-80 93 % of control

CNC(=O)OC(C)C1CCCCC1OC(=O)NC (stereo not drawn)
inactive: [4] 100 % of control | [5] 106 % of control | [6] 100 % of control

CC1(CCc2ccc(N(CCCl)CCCl)cc2)NC(=O)NC1=O (stereo not drawn)
inactive: dose: 3.13 mg/kg/injection, schedule: Q01DX009 (ip), vehicle: Klucel (hydroxypropylcellulose) (HPC) 105 % of control | dose: 6.25 mg/kg/injection, schedule: Q01DX009 (ip), vehicle: Klucel (hydroxypropylcellulose) (HPC) 103 % of control | dose: 12.5 mg/kg/injection, schedule: Q01DX009 (ip), vehicle: Klucel (hydroxypropylcellulose) (HPC) 103 % of control | [10] 103 % of control

O=C(O)c1c[nH]c2cc(OCc3ccc4ccccc4c3)ccc2c1=O
inactive: dose: 100.0 mg/kg/injection, schedule: Q04DX003 (ip), vehicle: saline 90 % of control | dose: 200.0 mg/kg/injection, schedule: Q04DX003 (ip), vehicle: saline 97 % of control | dose: 400.0 mg/kg/injection, schedule: Q04DX003 (ip), vehicle: saline 87 % of control

COc1ccc(/C=N/NC(=O)CNC(=O)n2ccnc2)cc1
inactive: dose: 50.0 mg/kg/injection, schedule: Q01DX005 (ip), vehicle: saline with Tween-80 100 % of control | dose: 100.0 mg/kg/injection, schedule: Q01DX005 (ip), vehicle: saline with Tween-80 92 % of control | dose: 200.0 mg/kg/injection, schedule: Q01DX005 (ip), vehicle: saline with Tween-80 91 % of control

Cc1ccc(Br)c(C(O)(C(F)(F)F)C(F)(F)F)c1
inactive: dose: 100.0 mg/kg/injection, schedule: Q01DX001 (ip), vehicle: other 103 % of control and 104 % of control | dose: 200.0 mg/kg/injection, schedule: Q01DX001 (ip), vehicle: other 101 % of control | dose: 400.0 mg/kg/injection, schedule: Q01DX001 (ip), vehicle: other 111 % of control and 108 % of control

O/N=C1/CCCCC/C1=N/O
inactive: [7] 98 % of control | [8] 100 % of control | [9] 100 % of control | [13] 107 % of control

CCn1c2ccccc2c2ccc(N=Cc3ccccc3[N+](=O)[O-])cc21
inactive: dose: 100.0 mg/kg/injection, schedule: Q04DX003 (ip), vehicle: Klucel (hydroxypropylcellulose) (HPC) 98 % of control | dose: 200.0 mg/kg/injection, schedule: Q04DX003 (ip), vehicle: Klucel (hydroxypropylcellulose) (HPC) 97 % of control | dose: 400.0 mg/kg/injection, schedule: Q04DX003 (ip), vehicle: Klucel (hydroxypropylcellulose) (HPC) 96 % of control
